Each structure is given as a SMILES string. Counter-ions that a name gives are not always drawn.

Chain of ULK1 (Homo sapiens, UniProt O75385) (O75385 whole entry, looked up): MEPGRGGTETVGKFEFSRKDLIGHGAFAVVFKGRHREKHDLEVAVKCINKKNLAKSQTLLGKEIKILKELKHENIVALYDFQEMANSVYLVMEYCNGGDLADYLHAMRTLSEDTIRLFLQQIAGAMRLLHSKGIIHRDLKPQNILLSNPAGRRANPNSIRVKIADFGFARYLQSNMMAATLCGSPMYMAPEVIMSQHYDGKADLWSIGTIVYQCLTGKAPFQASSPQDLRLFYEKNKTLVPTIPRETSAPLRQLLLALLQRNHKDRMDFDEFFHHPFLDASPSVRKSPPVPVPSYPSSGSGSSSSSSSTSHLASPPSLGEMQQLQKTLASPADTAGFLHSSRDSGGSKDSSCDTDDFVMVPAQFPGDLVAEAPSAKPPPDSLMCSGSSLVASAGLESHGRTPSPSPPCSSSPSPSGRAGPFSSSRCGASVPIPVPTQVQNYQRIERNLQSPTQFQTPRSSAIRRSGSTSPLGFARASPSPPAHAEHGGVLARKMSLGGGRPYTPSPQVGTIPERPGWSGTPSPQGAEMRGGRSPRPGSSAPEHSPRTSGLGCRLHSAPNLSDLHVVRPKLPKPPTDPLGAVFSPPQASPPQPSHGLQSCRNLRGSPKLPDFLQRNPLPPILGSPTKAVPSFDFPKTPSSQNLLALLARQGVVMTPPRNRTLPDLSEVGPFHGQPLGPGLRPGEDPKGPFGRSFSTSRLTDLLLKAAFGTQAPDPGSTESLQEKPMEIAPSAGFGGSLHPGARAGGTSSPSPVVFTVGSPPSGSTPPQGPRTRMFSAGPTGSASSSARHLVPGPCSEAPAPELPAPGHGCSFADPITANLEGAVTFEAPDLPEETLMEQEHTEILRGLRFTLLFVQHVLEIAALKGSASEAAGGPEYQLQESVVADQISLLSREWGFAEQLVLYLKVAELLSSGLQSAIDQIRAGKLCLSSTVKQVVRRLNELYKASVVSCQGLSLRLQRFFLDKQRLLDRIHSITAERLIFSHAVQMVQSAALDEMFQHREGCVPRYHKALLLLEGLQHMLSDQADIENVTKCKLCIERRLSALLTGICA

One assay concerns the target ULK1 (Homo sapiens, UniProt O75385). Briefly: ULK1 inhibition assay (Table 1). It counts as biochemical. The conditions noted are these: * = tested as a mixture of regioisomers.
On to `CC1CN1c1nc(Nc2ccc3c(c2)CCC(=O)N3)ncc1C(F)(F)F` (centres unmarked) [Example 183a, 6-((4-(2-methylaziridin-1-yl)-5-(trifluoromethyl)pyrimidin-2-yl)amino)-3,4-dihydroquinolin-2(1H)-one], for which the IC50 is more than 2000 nM.
With `O=C1CCc2cc(Nc3ncc(C(F)(F)F)c(Nc4ccc5[nH]ncc5c4)n3)ccc2N1` [Example 185, 6-((4-((1H-indazol-5-yl)amino)-5-(trifluoromethyl)pyrimidin-2-yl)amino)-3,4-dihydroquinolin-2(1H)-one], the IC50 is less than 200 nM.
The same measure, in the same setting: with `COc1cc(Nc2ncc(Br)c(NC3CC3)n2)cc(OC)c1OC` [Example 186, 5-bromo-N4-cyclopropyl-N2-(3,4,5-trimethoxyphenyl)pyrimidine-2,4-diamine] the figure was less than 200 nM; with `FC(F)(F)c1cnc(Nc2ccc3nn[nH]c3c2)nc1NC1CC1` [Example 188, N2-(1H-benzo[d][1,2,3]triazol-6-yl)-N4-cyclopropyl-5-(trifluoromethyl)pyrimidine-2,4-diamine], less than 200 nM; with `FC(F)(F)c1cnc(Nc2ccc3c(c2)OCCCO3)nc1NC1CC1` [Example 190, N4-cyclopropyl-N2-(3,4-dihydro-2H-benzo[b][1,4]dioxepin-7-yl)-5-(trifluoromethyl)pyrimidine-2,4-diamine], less than 200 nM.
The same measure, in the same setting: with `O=c1[nH]c2ncc(Nc3nc(Nc4ccc5c(c4)OCCO5)ncc3Br)cc2o1` [Example 192, 6-((5-bromo-2-((2,3-dihydrobenzo[b][1,4]dioxin-6-yl)amino)pyrimidin-4-yl)amino)oxazolo[4,5-b]pyridin-2(3H)-one] the figure was less than 200 nM; with `O=C1CCc2cc(Nc3ncc(C(F)(F)F)c(NC4COC4)n3)ccc2N1` [Example 193, 6-((4-(oxetan-3-ylamino)-5-(trifluoromethyl)pyrimidin-2-yl)amino)-3,4-dihydroquinolin-2(1H)-one], more than 2000 nM.
With `FC(F)(F)c1cnc(Nc2cnc3[nH]ccc3c2)nc1NC1COC1` [Example 194, N4-(oxetan-3-yl)-N2-(1H-pyrrolo[2,3-b]pyridin-5-yl)-5-(trifluoromethyl)pyrimidine-2,4-diamine], the IC50 is less than 200 nM.
Still for that read-out and setting: with `O=C1CCc2cc(Nc3ncc(C(F)(F)F)c(NCCO)n3)ccc2N1` [Example 197, 6-((4-((2-hydroxyethyl)amino)-5-(trifluoromethyl)pyrimidin-2-yl)amino)-3,4-dihydroquinolin-2(1H)-one] the figure was less than 200 nM; with `CNC(=O)c1ccccc1Nc1nc(Nc2cnc3[nH]ccc3c2)ncc1C(F)(F)F` [Example 201, 2-((2-((1H-pyrrolo[2,3-b]pyridin-5-yl)amino)-5-(trifluoromethyl)pyrimidin-4-yl)amino)-N-methylbenzamide], less than 200 nM; with `CN(c1nc(Nc2ccc3c(c2)CCC(=O)N3)ncc1C(F)(F)F)C1CC1` [Example 202, 6-((4-(cyclopropyl(methyl)amino)-5-(trifluoromethyl)pyrimidin-2-yl)amino)-3,4-dihydroquinolin-2(1H)-one], less than 200 nM.
On the same count and under the same terms, with `FC(F)(F)c1cnc(Nc2ccc3[nH]ccc3c2)nc1NC1CC1` [Example 206, N4-cyclopropyl-N2-(1H-indol-5-yl)-5-(trifluoromethyl) pyrimidine-2,4-diamine] the figure was less than 200 nM.
On the same count and under the same terms, with `FC(F)(F)c1cnc(Nc2ccc3ncoc3c2)nc1NC1CC1` [Example 208a, N2-(benzo[d]oxazol-6-yl)-N4-cyclopropyl-5-(trifluoromethyl)pyrimidine-2,4-diamine] the figure was less than 200 nM.
Consider `Nc1nc(Nc2ccc3c(c2)CCC(=O)N3)ncc1C(F)(F)F` [Example 209, 6-((4-amino-5-(trifluoromethyl)pyrimidin-2-yl)amino)-3,4-dihydroquinolin-2(1H)-one], for which the IC50 lay in the range of 200 to 2000 nM.
`O=C1CCc2cc(Nc3ncc(C(F)(F)F)c(N(CCO)CCO)n3)ccc2N1` [Example 212a, 6-((4-(bis(2-hydroxyethyl)amino)-5-(trifluoromethyl)pyrimidin-2-yl)amino)-3,4-dihydroquinolin-2(1H)-one]: the IC50 is more than 2000 nM.
On the same count and under the same terms, in the case of `FC(F)(F)c1cnc(Nc2ccc3c(c2)OCO3)nc1NC1CC1` [Example 213, N2-(benzo[d][1,3]dioxol-5-yl)-N4-cyclopropyl-5-(trifluoromethyl)pyrimidine-2,4-diamine] it was less than 200 nM; in that of `O=C1CCc2cc(Nc3ncc(C(F)(F)F)c(N4CC(F)(F)C4)n3)ccc2N1` [Example 215, 6-((4-(3,3-difluoroazetidin-1-yl)-5-(trifluoromethyl)pyrimidin-2-yl)amino)-3,4-dihydroquinolin-2(1H)-one], less than 200 nM; in that of `O=C1CCc2cc(Nc3ncc(C(F)(F)F)c(NCC4CC4)n3)ccc2N1` [Example 216, 6-((4-((cyclopropylmethyl)amino)-5-(trifluoromethyl)pyrimidin-2-yl)amino)-3,4-dihydroquinolin-2(1H)-one], less than 200 nM.
On the same count and under the same terms, in the case of `Nc1nc(Nc2cnc3[nH]ccc3c2)ncc1C(F)(F)F` [Example 217, N2-(1H-pyrrolo[2,3-b]pyridin-5-yl)-5-(trifluoromethyl) pyrimidine-2,4-diamine] it was more than 2000 nM; in that of `COC(=O)CNc1nc(Nc2ccc3c(c2)CCC(=O)N3)ncc1C(F)(F)F` [Example 218, Methyl (2-((2-oxo-1,2,3,4-tetrahydroquinolin-6-yl)amino)-5-(trifluoromethyl)pyrimidin-4-yl)glycinate], more than 2000 nM; in that of `CCONc1nc(Nc2ccc3c(c2)CCC(=O)N3)ncc1C(F)(F)F` [Example 219, 6-((4-(ethoxyamino)-5-(trifluoromethyl)pyrimidin-2-yl)amino)-3,4-dihydroquinolin-2(1H)-one], more than 2000 nM.
Still for that read-out and setting: with `CC1(Nc2nc(Nc3ccc4c(c3)CCC(=O)N4)ncc2C(F)(F)F)COC1` [Example 220a, 6-((4-((3-methyloxetan-3-yl)amino)-5-(trifluoromethyl)pyrimidin-2-yl)amino)-3,4-dihydroquinolin-2(1H)-one] the figure was more than 2000 nM; with `FC(F)(F)c1cnc(Nc2ccnnc2)nc1NC1CC1` [Example 221a, N4-cyclopropyl-N2-(pyridazin-4-yl)-5-(trifluoromethyl)pyrimidine-2,4-diamine], less than 200 nM; with `O=C1CCc2cc(Nc3ncnc(NC4CC4)n3)ccc2N1` [Example 225, 6-((4-(cyclopropylamino)-1,3,5-triazin-2-yl)amino)-3,4-dihydroquinolin-2(1H)-one], more than 2000 nM.
Regarding `COC(=O)[C@@H]1CCCN1c1nc(Nc2ccc3c(c2)CCC(=O)N3)ncc1C(F)(F)F` [Example 227, Methyl (2-((2-oxo-1,2,3,4-tetrahydroquinolin-6-yl)amino)-5-(trifluoromethyl)pyrimidin-4-yl)-L-prolinate], the IC50 fell in the range of 200 to 2000 nM.
Still for that read-out and setting: with `FC(F)(F)c1cnc(N2CCCC2c2cccnc2)nc1NC1CC1` (centres unmarked) [Example 228, N-cyclopropyl-2-(2-(pyridin-3-yl)pyrrolidin-1-yl)-5-(trifluoromethyl)pyrimidin-4-amine] the figure was more than 2000 nM; with `CNC(=O)c1ccccc1Oc1nc(Nc2cc(OC)c(OC)c(OC)c2)ncc1Cl` [Example 234a, 2-((5-chloro-2-((3,4,5-trimethoxyphenyl)amino)pyrimidin-4-yl)oxy)-N-methylbenzamide], more than 2000 nM.

A further assay deals with ULK1. Kind of assay: ULK1 inhibition assay (Table 1). Format: biochemical. The conditions noted are these: * = tested as a mixture of regioisomers.
In the case of `COc1cc(Nc2ncc(Br)c(Oc3ccccc3-c3nc(C)co3)n2)cc(OC)c1OC` [Example 290, 5-bromo-4-(2-(4-methyloxazol-2-yl)phenoxy)-N-(3,4,5-trimethoxyphenyl)pyrimidin-2-amine], the IC50 is more than 2000 nM.
With `O=[N+]([O-])c1cnc(NC2CC2)nc1NC1CC1` [Example 291b, N2,N4-dicyclopropyl-5-nitropyrimidine-2,4-diamine], the IC50 is more than 2000 nM.
Still for that read-out and setting: with `COc1cc(Nc2ncc(Br)c(Nc3ccccc3)n2)cc(OC)c1OC` [Example 293, 5-bromo-N4-phenyl-N2-(3,4,5-trimethoxyphenyl)pyrimidine-2,4-diamine] the figure was less than 200 nM; with `O=C1CCc2cc(Nc3ncc(C(F)(F)F)c(Oc4ccccc4)n3)ccc2N1` [Example 300a, 6-((4-phenoxy-5-(trifluoromethyl)pyrimidin-2-yl)amino)-3,4-dihydroquinolin-2(1H)-one], more than 2000 nM; with `O=C1CCc2cc(Nc3nc(Oc4ccccc4)ncc3C(F)(F)F)ccc2N1` [Example 300b, 6-((2-phenoxy-5-(trifluoromethyl)pyrimidin-4-yl)amino)-3,4-dihydroquinolin-2(1H)-one], more than 2000 nM.
Turning to `FC(F)(F)c1cnc(Nc2ccc(Nc3ncc(C(F)(F)F)c(NC4CC4)n3)cc2)nc1NC1CC1` [Example 304b, N2,N2′-(1,4-phenylene)bis(N4-cyclopropyl-5-(trifluoromethyl)pyrimidine-2,4-diamine)], the IC50 was more than 2000 nM.
Same read-out and setting: in the case of `FC(F)(F)c1cnc(Nc2ccc3c(c2)CCNC3)nc1NC1CC1` [Example 309, N4-cyclopropyl-N2-(1,2,3,4-tetrahydroisoquinolin-6-yl)-5-(trifluoromethyl)pyrimidine-2,4-diamine.HCl] it was less than 200 nM.
Still for that read-out and setting: with `NCCCNc1nc(Nc2ccc3c(c2)CCC(=O)N3)ncc1C(F)(F)F` [Example 313, 6-((4-((3-aminopropyl)amino)-5-(trifluoromethyl)pyrimidin-2-yl)amino)-3,4-dihydroquinolin-2(1H)-one.HCl] the figure was less than 200 nM.
Consider `O=C1NC(=O)c2cc(Nc3ncc(C(F)(F)F)c(NC4CC4)n3)ccc21` [Example 314, 5-((4-(cyclopropylamino)-5-(trifluoromethyl)pyrimidin-2-yl)amino)isoindoline-1,3-dione], for which the IC50 was less than 200 nM.
On the same count and under the same terms, with `CNC(=O)CCOc1nc(Nc2cc(OC)c(OC)c(OC)c2)ncc1Br` [Example 316, 3-((5-bromo-2-((3,4,5-trimethoxyphenyl)amino)pyrimidin-4-yl)oxy)-N-methylpropanamide] the figure was less than 200 nM.
Turning to `COc1cc(Nc2ncc(Br)c(Nc3ccccc3O)n2)cc(OC)c1OC` [Example 317, 2-((5-bromo-2-((3,4,5-trimethoxyphenyl)amino)pyrimidin-4-yl)amino)phenol], the IC50 was less than 200 nM.

Values taken from US10774092B2 (SALK INSTITUTE FOR BIOLOGICAL STUDIES, priority 2014, dated 2020).
